These results are taken from PMC10144134, “Characterization of Potent ABCG2 Inhibitor Derived from Chromone: From the Mechanism of Inhibition to Human Extracellular Vesicles for Drug Delivery” (Pharmaceutics, 2023).

Series [1] in a line: Water solubility. The class given is physicochemical. The following applies: aqueous.
The test system of series [2] is implanted ABCG2-positive tumors. The following applies: cited from earlier work.
Series [3] addresses T1, ABCG2 (Homo sapiens, UniProt Q9UNQ0).
T1 sequence (Q9UNQ0 1-655): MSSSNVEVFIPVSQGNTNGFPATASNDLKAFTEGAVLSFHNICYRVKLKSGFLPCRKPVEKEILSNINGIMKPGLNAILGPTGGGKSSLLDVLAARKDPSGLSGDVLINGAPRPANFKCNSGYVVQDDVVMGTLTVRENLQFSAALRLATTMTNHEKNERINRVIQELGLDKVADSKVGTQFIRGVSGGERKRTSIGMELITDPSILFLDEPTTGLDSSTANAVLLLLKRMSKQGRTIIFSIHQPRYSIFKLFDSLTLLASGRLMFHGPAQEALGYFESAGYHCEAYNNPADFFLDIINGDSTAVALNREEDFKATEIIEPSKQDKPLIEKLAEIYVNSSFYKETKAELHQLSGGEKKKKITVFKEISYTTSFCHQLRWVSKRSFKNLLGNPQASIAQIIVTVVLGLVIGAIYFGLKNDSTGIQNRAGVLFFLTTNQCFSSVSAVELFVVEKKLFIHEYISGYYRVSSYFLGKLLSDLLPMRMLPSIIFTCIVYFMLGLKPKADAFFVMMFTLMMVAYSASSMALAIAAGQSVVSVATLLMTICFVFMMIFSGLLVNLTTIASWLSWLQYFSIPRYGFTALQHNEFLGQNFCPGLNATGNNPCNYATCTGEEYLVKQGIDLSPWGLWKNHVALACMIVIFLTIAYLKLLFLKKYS
Details: expressed in transfected cells; host or cells: HEK293 (stably transfected, G418 selection; gift of Dr. Attilio Di Pietro). Particulars: read-out: IC50 of ABCG2 inhibition; cited from earlier work.

Details of series [4]: method as in PMID 17317193. Particulars: cited from earlier work.
Series [5] deals with HEK293 WT cells. Kind of series: MTT cell viability, HEK293 WT. The class given is cell-based, human. Particulars: SN38 10 nM, 72 h. How it is done: (§1) HEK293 WT (wild type) and HEK293-ABCG2 cells were seeded (2.5 × 10^4 cell/well) into a 96-well plate and incubated for 24 h. Cells were concomitantly treated with EVs […]C4a (0.1, 1 and 10 μM) and SN-38 (10 nM) for 72 h. After this period, the medium was removed, cells were washed with PBS (100 μL) and incubated with MTT solution (100 μL of solution 0.5 mg/mL in PBS) for 4 h. Then, the solution was removed, and the formazan crystals were dissolved with 100 μL of ethanol/DMSO (1:1). The absorbance was measured using a microplate reader at 595 nm (Bio-Rad iMark, Hercules, CA, USA).

Series [6] relates to HEK293-ABCG2 cells. Kind of series: MTT chemosensitization assay, HEK293-ABCG2. The format is cell-based, human. Particulars: SN38 10 nM, 72 h, MTT. How it is done: as §1
Background: Tetrazolium assays rely on reduction of a dye to a coloured formazan, in cell work by metabolically active cells.

The IC50 is the concentration that inhibits the measured activity by half.

Turning to `COc1ccc2[nH]cc(CCNC(=O)c3cc(=O)c4c(OCc5ccc(Br)cc5)cccc4o3)c2c1` [MBL-II-141], the solubility entry in series [1] is “low solubility”. Moreover, the “growth of implanted ABCG2-positive tumors in mice” value in series [2] (in combination with irinotecan) is recorded as “inhibiting the growth of implanted ABCG2-positive tumors”. In series [3], the IC50 was 0.26 µM.

For `COc1ccc2c(=O)c3cccc(C(=O)NCc4ccc(OC)c(OC)c4)c3[nH]c2c1` [MBLI-87], the cytotoxicity entry in series [4] is “low cytotoxicity”. The “sensitization of xenografic tumors overexpressing ABCG2 to irinotecan” value in series [2] is given as “successfully sensitized xenografic tumors overexpressing ABCG2 to irinotecan”. For the same molecule, the IC50 in series [3] is 0.45 µM.

Take `CCc1c2c(nc3ccc(O)cc13)-c1cc3c(c(=O)n1C2)COC(=O)[C@]3(O)CC` [SN38, reference compound]: the “cytotoxic effect on wild-type HEK293 cells” value in series [5] was “highly cytotoxic”. In addition, in series [6], the “cell viability of cells overexpressing ABCG2” value is listed as “mild decrease in the cell viability”.
